Laboratory results as given in US4216221A, “1,3-Disubstituted (2-thio)ureas” (U C B, Societe Anonyme, priority 1977, dated 1980).
Where two headings read alike, the source gives them in different places.

Legend:
[1] = Toxicity by intraperitoneal administration (Irwin's test); type: in vivo; conditions: for Dose mg/kg (dose which brings about the death of one animal out of eight in Irwin's test): mouse
Source text: The compounds tested have a remarkably low toxicity.
*Dose which brings about the death of one animal out of eight in Irwin's
test (S. IRWIN, Gordon Research Conference on Medicinal Chemistry, Colby
Junior College, New London, 1959).

[2] = Protection against aggressions of the hypoxic type (mortality induced by oxydipentonium chloride); type: in vivo, mice; conditions: Mus musculus, ip, 1 h, mice, intraperitoneal, one hour before the curarizer, read-out: Proportion of survivors, Animals treated; for responders at 100 µM, 100 µmol/kg: 0.1 mM/kg, control animals 3/20 (1), 1/10 (2, 18, 26), 0/10 (14, 32); for responders at 100 µM, 100 µmol/kg / responders at 320 µM, 320 µmol/kg: 2/10 (28); for responders at 320 µM, 320 µmol/kg: 0.32 mM/kg, control animals 1/10 (18), 0/10 (32, piracetam)
Protocol: Protection against aggressions of the hypoxic type was shown by a reduction of mortality induced by a curarizer, the action time of which is short, namely oxydipentonium chloride (Brevatonal). At the doses used, this curarizer brings about respiratory depression which, in turn, gives rise to a hypoxi-hypercapnic syndrome.
A compound capable of protecting the brain during this short period of hypoxia ensures survival. The compounds are administered to groups of 10 mice one hour before the injection of the curarizer. At the same time, a control group of 10 mice received physiological salt solution before the curarizer. This test has also been developed in our laboratories (see S. LEVIS et al., Arch.Int.Pharmacodyn.Therap.93, (1953,no. 1), 46-54).

[3] = active avoidance test (memory retention; paw withdrawal reaction threshold); type: in vivo, rat; conditions: sc, rat, subcutaneous, tested 24 hours later
Source text: The pressure at which the withdrawal reaction takes place is called the reaction threshold. This threshold is expressed by the figure read on a scale graduated in cm of the apparatus used (Analgesy-meter Ugo Basile, Milan) and thus corresponds to the minimum pressure which brings about withdrawal when applied to the animal's paw.

[4] = read-out: Active dose mM/kg (minimum dose lowering the stimulus below 11 graduations; mM = millimole)
[5] = read-out: Active dose mg/kg (minimum dose lowering the stimulus below 11 graduations)

O=C(NCN1C(=O)CCC1c1ccccc1)NCN1C(=O)CCC1c1ccccc1 (centres unmarked) [Compound No. 9, 1,3-bis[(2-oxo-5-phenyl-pyrrolidino)methyl]-urea]
Dose mM/kg - mouse (dose which brings about the death of one animal out of eight in Irwin's test) [1]: 1 mM/kg | Dose mg/kg (dose which brings about the death of one animal out of eight in Irwin's test) [1]: 406 mg/kg

O=C(NCCCN1CCCC1=O)NCN1CCCC1=O [Compound No. 2, 1-[(2-oxo-pyrrolidino)methyl]-3-[3-(2-oxo-pyrrolidino)propyl]-urea]
Dose mM/kg - mouse (dose which brings about the death of one animal out of eight in Irwin's test) [1]: > 3 mM/kg | Dose mg/kg (dose which brings about the death of one animal out of eight in Irwin's test) [1]: > 846 mg/kg | responders at 100 µM, 100 µmol/kg [2]: 60%

CC1(C)CCC(=O)N1CNC(=O)NCN1C(=O)CCC1(C)C [compound 35, 1,3bis[(5,5-dimethyl-2-oxo-pyrrolidine)methyl]-urea]
minimal effective dose [3, 4]: 0.02 µmol/kg | minimal effective dose [3, 5]: 0.0062 mg/kg | Dose mM/kg - mouse (dose which brings about the death of one animal out of eight in Irwin's test) [1]: > 3 mM/kg | Dose mg/kg (dose which brings about the death of one animal out of eight in Irwin's test) [1]: > 930 mg/kg

O=C1CCCCCN1CNC(=S)NCN1CCCCCC1=O [compound 36, 1,3-bis[(hexahydro-2-oxo-1H-azepin-1-yl)methyl]-2-thiourea]
minimal effective dose [3, 4]: 0.2 µmol/kg | minimal effective dose [3, 5]: 0.065 mg/kg

CCC(NC(=O)NC(CC)N1CCCC1=O)N1CCCC1=O (centres unmarked) [Compound No. 10, 1,3-bis[1-(2-oxo-pyrrolidino)propyl]-urea]
Dose mM/kg - mouse (dose which brings about the death of one animal out of eight in Irwin's test) [1]: > 3 mM/kg | Dose mg/kg (dose which brings about the death of one animal out of eight in Irwin's test) [1]: > 930 mg/kg

O=C(NC(c1ccccc1)N1CCCC1=O)NC(c1ccccc1)N1CCCC1=O (stereo not drawn) [compound 19, 1,3-bis[alpha-(2-oxo-pyrrolidino)-benzyl]-urea]
Dose mM/kg - mouse (dose which brings about the death of one animal out of eight in Irwin's test) [1]: > 3 mM/kg | Dose mg/kg (dose which brings about the death of one animal out of eight in Irwin's test) [1]: > 1219 mg/kg

O=C1CCCN1CNC(=S)NCN1CCCC1=O [compound 25, 1,3-bis[(2-oxo-pyrrolidino)methyl]-2-thiourea]
minimal effective dose [3, 4]: 1 µmol/kg | minimal effective dose [3, 5]: 0.268 mg/kg | Dose mM/kg - mouse (dose which brings about the death of one animal out of eight in Irwin's test) [1]: > 3 mM/kg | Dose mg/kg (dose which brings about the death of one animal out of eight in Irwin's test) [1]: > 804 mg/kg

O=C(NCN1CCCCC1=O)NCN1CCCCC1=O [Compound No. 3, 1,3-bis[(2-oxo-piperidino)methyl]-urea]
minimal effective dose [3, 4]: 0.2 µmol/kg | minimal effective dose [3, 5]: 0.056 mg/kg

O=C(NCN1CCCCCCC1=O)NCN1CCCCCCC1=O [Compound No. 5, 1,3bis[(hexahydro-2-oxo-1(2H)-azocinyl)methyl]-urea]
minimal effective dose [3, 4]: 1 µmol/kg | minimal effective dose [3, 5]: 0.338 mg/kg | Dose mM/kg - mouse (dose which brings about the death of one animal out of eight in Irwin's test) [1]: 3 mM/kg | Dose mg/kg (dose which brings about the death of one animal out of eight in Irwin's test) [1]: 1004 mg/kg

CCCCC1CCN(CNC(=S)NCN2CCC(CCCC)C2=O)C1=O (centres unmarked) [compound 26, 1,3-bis[(3-n-butyl-2-oxo-pyrrolidino)methyl]-2-thiourea]
Dose mM/kg - mouse (dose which brings about the death of one animal out of eight in Irwin's test) [1]: > 2 mM/kg | Dose mg/kg (dose which brings about the death of one animal out of eight in Irwin's test) [1]: > 765.2 mg/kg | responders at 100 µM, 100 µmol/kg [2]: 70%

CCCCC1CCN(CNC(=O)NCN2CCC(CCCC)C2=O)C1=O (centres unmarked) [compound 30, 1,3-bis[(3-n-butyl-2-oxo-pyrrolidino)methyl]-urea]
Dose mM/kg - mouse (dose which brings about the death of one animal out of eight in Irwin's test) [1]: > 3 mM/kg | Dose mg/kg (dose which brings about the death of one animal out of eight in Irwin's test) [1]: > 10009.5 mg/kg

CC(CNC(=O)NCC(C)N1CCCC1=O)N1CCCC1=O (centres unmarked) [compound 21, 1,3-bis[2-(2-oxo-pyrrolidino)propyl]-urea]
minimal effective dose [3, 4]: 0.01 µmol/kg | minimal effective dose [3, 5]: 0.0031 mg/kg | Dose mM/kg - mouse (dose which brings about the death of one animal out of eight in Irwin's test) [1]: > 3 mM/kg | Dose mg/kg (dose which brings about the death of one animal out of eight in Irwin's test) [1]: > 930 mg/kg

CC(NC(=O)NC(C)N1CCCC1=O)N1CCCC1=O (centres unmarked) [Compound No. 11, 1,3-bis[1-(2-oxo-pyrrolidino)ethyl]-urea]
minimal effective dose [3, 4]: 0.005 µmol/kg | minimal effective dose [3, 5]: 0.0014 mg/kg | Dose mM/kg - mouse (dose which brings about the death of one animal out of eight in Irwin's test) [1]: > 3 mM/kg | Dose mg/kg (dose which brings about the death of one animal out of eight in Irwin's test) [1]: > 846 mg/kg | responders at 32 µM, 32 µmol/kg ([2]; 0.032 mM/kg, control animals 3/20 (compound 1), 1/10 (compound 11)): 70%

O=C(NCN1CCCCCC1=O)NCN1CCCC1=O [compound 32, 1-[(hexahydro-2-oxo-1H-azepin-1-yl)methyl]-3-[(2-oxo-pyrrolidino)methyl]-urea]
Dose mM/kg - mouse (dose which brings about the death of one animal out of eight in Irwin's test) [1]: > 3 mM/kg | Dose mg/kg (dose which brings about the death of one animal out of eight in Irwin's test) [1]: > 846 mg/kg | responders at 100 µM, 100 µmol/kg [2]: 30% | responders at 320 µM, 320 µmol/kg [2]: 60%

O=C(NCN1CC(c2ccc(Cl)cc2)CCC1=O)NCN1CC(c2ccc(Cl)cc2)CCC1=O (centres unmarked) [compound 16, 1,3-bis[(5-p-chlorophenyl-2-oxo-piperidino)methyl]-urea]
Dose mM/kg - mouse (dose which brings about the death of one animal out of eight in Irwin's test) [1]: > 3 mM/kg | Dose mg/kg (dose which brings about the death of one animal out of eight in Irwin's test) [1]: 1510.2 mg/kg

O=C(NCN1CCCCCCC1=O)NCN1CCCC1=O [compound 33, 1-[(hexahydro-2-oxo-1(2H)-azocinyl)methyl]-3-[(2-oxo-pyrrolidino)methyl]-urea]
minimal effective dose [3, 4]: 5 µmol/kg | minimal effective dose [3, 5]: 1.48 mg/kg | Dose mM/kg - mouse (dose which brings about the death of one animal out of eight in Irwin's test) [1]: > 3 mM/kg | Dose mg/kg (dose which brings about the death of one animal out of eight in Irwin's test) [1]: > 888 mg/kg

CCC1(c2ccccc2)CCN(CNC(=O)NCN2CCC(CC)(c3ccccc3)C2=O)C1=O (centres unmarked) [compound 13, 1,3-bis[(3-ethyl-2-oxo-3-phenyl-pyrrolidino)methyl]-urea]
Dose mM/kg - mouse (dose which brings about the death of one animal out of eight in Irwin's test) [1]: > 3 mM/kg | Dose mg/kg (dose which brings about the death of one animal out of eight in Irwin's test) [1]: 1387.5 mg/kg

CC1CC2(CCCCC2)C(=O)N1CNC(=O)NCN1CCCC1=O (centres unmarked) [compound 31, 1-[(3-methyl-1-oxo-azaspiro[4.5]dec-2-yl)methyl]-3-[(2-oxo-pyrrolidino)-methyl]-urea]
Dose mM/kg - mouse (dose which brings about the death of one animal out of eight in Irwin's test) [1]: 2 mM/kg | Dose mg/kg (dose which brings about the death of one animal out of eight in Irwin's test) [1]: 672.8 mg/kg

CC1CC2(CCCCC2)C(=O)N1CNC(=O)NCN1C(=O)C2(CCCCC2)CC1C (centres unmarked) [compound 17, 1,3-bis[(3-methyl-1-oxo-2-azaspiro[4.5]dec-2-yl)methyl]-urea]
Dose mM/kg - mouse (dose which brings about the death of one animal out of eight in Irwin's test) [1]: 3 mM/kg | Dose mg/kg (dose which brings about the death of one animal out of eight in Irwin's test) [1]: 1255.8 mg/kg

O=C(NCN1CCCCCCCC1=O)NCN1CCCCCCCC1=O [Compound No. 6, 1,3-bis[(octahydro-2-oxo-1H-azonin-1-yl)methyl]-urea]
minimal effective dose [3, 4]: 5 µmol/kg | minimal effective dose [3, 5]: 1.83 mg/kg | Dose mM/kg - mouse (dose which brings about the death of one animal out of eight in Irwin's test) [1]: > 3 mM/kg | Dose mg/kg (dose which brings about the death of one animal out of eight in Irwin's test) [1]: 1099.5 mg/kg

CCCCC1CCN(CNC(=S)NCN2CCC(CCCC)C2=O)C1=O (centres unmarked) [compound 27, 1,3-bis[(3-n-butyl-2-oxo-pyrrolidino)methyl]-2-thiourea]
minimal effective dose [3, 4]: 0.01 µmol/kg | minimal effective dose [3, 5]: 0.0038 mg/kg

O=C(NCN1CCCCCCCC1=O)NCN1CCCC1=O [Compound No. 29, 1-[(octahydro-2-oxo-1H-azonin-1-yl)methyl]-3-[(2-oxo-pyrrolidino)methyl]-urea]
Dose mM/kg - mouse (dose which brings about the death of one animal out of eight in Irwin's test) [1]: 2 mM/kg | Dose mg/kg (dose which brings about the death of one animal out of eight in Irwin's test) [1]: 620 mg/kg

O=C1CCCCCN1CNC(=S)NCN1CCCC1=O [compound 28, 1-[(hexahydro-2-oxo-1H-azepin-1-yl)methyl]-3-[(2-oxo-pyrrolidino)methyl]-2-thiourea]
Dose mM/kg - mouse (dose which brings about the death of one animal out of eight in Irwin's test) [1]: 3 mM/kg | Dose mg/kg (dose which brings about the death of one animal out of eight in Irwin's test) [1]: 894 mg/kg | responders at 100 µM, 100 µmol/kg [2]: 20% | responders at 320 µM, 320 µmol/kg [2]: 70%

O=C(NCN1CC(c2ccccc2)CC1=O)NCN1CC(c2ccccc2)CC1=O (centres unmarked) [compound 12, 1,3-bis[(2-oxo-4-phenyl-pyrrolidino)methyl]-urea]
Dose mM/kg - mouse (dose which brings about the death of one animal out of eight in Irwin's test) [1]: > 3 mM/kg | Dose mg/kg (dose which brings about the death of one animal out of eight in Irwin's test) [1]: 1215 mg/kg

CC1CC(C)(C)N(CNC(=O)NCN2C(=O)C(C)CC2(C)C)C1=O (centres unmarked) [compound 18, 1,3-bis[(3,5,5-trimethyl-2-oxo-pyrrolidino)methyl]-urea]
Dose mM/kg - mouse (dose which brings about the death of one animal out of eight in Irwin's test) [1]: 2 mM/kg | Dose mg/kg (dose which brings about the death of one animal out of eight in Irwin's test) [1]: 676.8 mg/kg | responders at 100 µM, 100 µmol/kg [2]: 20% | responders at 320 µM, 320 µmol/kg [2]: 60%

C=CCC1(c2ccccc2)CCN(CNC(=O)NCN2CCC(CC=C)(c3ccccc3)C2=O)C1=O (centres unmarked) [compound 15, 1,3-bis[(3-allyl-2-oxo-3-phenyl-pyrrolidino)methyl]-urea]
minimal effective dose [3, 4]: 1 µmol/kg | minimal effective dose [3, 5]: 0.486 mg/kg | Dose mM/kg - mouse (dose which brings about the death of one animal out of eight in Irwin's test) [1]: > 3 mM/kg | Dose mg/kg (dose which brings about the death of one animal out of eight in Irwin's test) [1]: 1459.5 mg/kg
